Reference: article PMC9841532, “Exploring the Effect of Halogenation in a Series of Potent and Selective A2B Adenosine Receptor Antagonists” (Journal of Medicinal Chemistry, 2022)
Converted amounts (≈) assume the structure as drawn. Like-named read-outs stand apart in the source and are kept apart here.

Assays:
A2B = settings: cited from earlier work
[1] = Solubility determination (nephelometry); type: physicochemical; settings: 1:99 DMSO/PSB buffer, PBS pH 7, 37 °C
Protocol: The solubility of selected compounds was evaluated by following a previously described method.[31] A 10 mM stock solution of the compound was serially diluted in 100% DMSO, and 2.5 μL of this solution was added to a 384-well UV-transparent plate (Greiner) containing 47.5 μL of PBS (pH = 7). The plate was incubated at 37 °C for 4 h, and the light scattering was measured in a NEPHELOstar Plus reader (BMG LABTECH). The data was fitted to a segmented linear regression for measuring the compound solubility.

hA2BAR = biological target: T1, hA2BAR (Homo sapiens, UniProt P29275); test: Radioligand binding competition, [3H]DPCPX, membranes from HEK-293-A2B cells; design: Exp. dG: unit not given here; settings: for Ki: read-out: Ki hA2B; for Exp. dG: experimental binding free energy, Supplementary Table S3, unit not given (errors in kcal/mol)
T1 construct: host or cells: HEK-293 (HEK-293-A2B) cell membranes
T1 sequence (P29275 1-332): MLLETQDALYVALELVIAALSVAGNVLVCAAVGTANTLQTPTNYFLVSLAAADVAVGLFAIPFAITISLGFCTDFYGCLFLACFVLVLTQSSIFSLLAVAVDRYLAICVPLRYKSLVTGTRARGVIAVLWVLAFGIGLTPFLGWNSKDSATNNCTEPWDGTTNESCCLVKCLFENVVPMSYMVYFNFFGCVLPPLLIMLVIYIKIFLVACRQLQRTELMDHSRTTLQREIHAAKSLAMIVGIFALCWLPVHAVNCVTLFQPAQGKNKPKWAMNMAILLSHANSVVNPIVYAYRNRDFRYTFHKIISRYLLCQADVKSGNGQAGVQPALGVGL
Procedure, shortened: (§1)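 Racemates, plus selected enantiomers after chiral resolution, were tested at 25 °C, with a 60 min incubation for one subtype and 30 min for others. Non-specific binding was defined with 10 μM or 100 μM R-PIA. Bound radioactivity was counted after washing and filtration.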

hA3AR [2] = biological target: T2, hA3AR (Homo sapiens, UniProt P0DMS8); test: Radioligand binding competition, [3H]NECA, membranes from HeLa-A3 cells; settings: 1 μM, [3H]NECA, human HeLa cells, n = 2
T2 construct: expressed in transfected cells; host or cells: HeLa (HeLa-A3) cell membranes
T2 sequence (P0DMS8 1-318): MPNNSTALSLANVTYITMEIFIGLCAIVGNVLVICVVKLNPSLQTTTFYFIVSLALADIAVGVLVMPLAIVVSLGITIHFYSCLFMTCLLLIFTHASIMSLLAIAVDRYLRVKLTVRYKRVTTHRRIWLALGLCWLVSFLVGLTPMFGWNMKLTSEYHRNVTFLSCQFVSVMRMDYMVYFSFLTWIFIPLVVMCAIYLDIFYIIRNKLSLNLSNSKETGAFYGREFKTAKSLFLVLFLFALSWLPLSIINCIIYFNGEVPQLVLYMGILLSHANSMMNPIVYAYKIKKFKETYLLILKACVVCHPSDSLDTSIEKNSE
Procedure, shortened: as §1

CYP3A4 = biological target: T3, CYP3A4 (Homo sapiens, UniProt P08684); test: CYP3A4 inhibition (fluorescence, substrates DBF or 7-BFC); type: biochemical; settings: for IC50: IC50 obtained by extrapolation with analysis software
T3 construct: host or cells: insect cell microsomes
T3 sequence (P08684 whole entry): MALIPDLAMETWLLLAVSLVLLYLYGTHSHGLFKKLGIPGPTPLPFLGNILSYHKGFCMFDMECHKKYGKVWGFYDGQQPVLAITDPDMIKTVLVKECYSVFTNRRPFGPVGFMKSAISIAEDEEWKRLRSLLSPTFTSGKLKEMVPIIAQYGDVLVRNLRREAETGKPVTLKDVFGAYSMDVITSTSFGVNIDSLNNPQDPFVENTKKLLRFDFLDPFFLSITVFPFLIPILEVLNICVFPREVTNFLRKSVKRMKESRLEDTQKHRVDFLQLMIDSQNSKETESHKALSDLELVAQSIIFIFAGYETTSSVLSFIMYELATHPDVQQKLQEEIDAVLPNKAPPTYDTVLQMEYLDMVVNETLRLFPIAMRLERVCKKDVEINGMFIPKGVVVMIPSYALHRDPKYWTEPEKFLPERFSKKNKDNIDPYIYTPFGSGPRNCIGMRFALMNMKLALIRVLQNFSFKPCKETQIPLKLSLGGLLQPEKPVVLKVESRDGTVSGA
Protocol: To identify potential metabolic liabilities within the series here documented, the selected A2BAR antagonists were tested in vitro for CYP3A4 inhibitory activity.
The inhibitory activity of selected compounds was evaluated by following a previously described method.[31] […] The plate was then pre-incubated at 37 °C for 5 min and the reaction initiated by the addition of a pre-warmed enzyme/substrate (E/S) mix. The E/S mix contained buffer (KH2PO4), c-DNA-expressed P450 in insect cell microsomes, substrate (DBF: dibenzylfluorescein or 7-BFC: 7-benzyloxy-4-trifluoromethyl-coumarin) and other components to give the final assay concentrations in a reaction volume of 200 μL. Reactions were terminated after various times (a specific time for each cytochrome) by addition of STOP solution (ACN/Tris–HCl 0.5 M 80:20, and NaOH 2 N for CYP3A4). Fluorescence per well was measured using a fluorescence plate reader (Tecan Infinite M1000 PRO), and percentage of inhibition was calculated. In silico predictions were performed using free web-based models (FAME 3, SmartCYP, and Xenosite).[62]−[64]

hA1AR [3] = biological target: T4, hA1AR (Homo sapiens, UniProt P30542); test: Radioligand binding competition, [3H]DPCPX, membranes from CHO-A1 cells; settings: for Ki: displacement of specific [3H]DPCPX binding in human CHO cells, n = 3, read-out: Ki hA1; for % at 1 μM hA1 (percentage displacement of specific binding): [3H]DPCPX, human CHO cells, n = 2
T4 sequence (P30542 1-326): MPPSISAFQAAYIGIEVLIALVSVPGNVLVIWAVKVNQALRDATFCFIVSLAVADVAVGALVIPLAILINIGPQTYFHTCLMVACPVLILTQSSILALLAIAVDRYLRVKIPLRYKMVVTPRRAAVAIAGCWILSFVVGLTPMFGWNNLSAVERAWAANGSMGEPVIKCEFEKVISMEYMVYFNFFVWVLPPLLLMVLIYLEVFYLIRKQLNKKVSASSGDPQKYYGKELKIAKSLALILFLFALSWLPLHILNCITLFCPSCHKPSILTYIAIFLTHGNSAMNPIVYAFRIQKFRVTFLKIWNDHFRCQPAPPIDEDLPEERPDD
Procedure, shortened: as §1

hA2AAR = biological target: T5, hA2AAR (Homo sapiens, UniProt P29274); test: Radioligand binding competition, [3H]ZM241385, membranes from HeLa-A2A cells; settings: 1 μM, [3H]ZM241385, human HeLa cells, n = 2
T5 construct: expressed in transfected cells; host or cells: HeLa (HeLa-A2A) cell membranes
T5 sequence (P29274 whole entry): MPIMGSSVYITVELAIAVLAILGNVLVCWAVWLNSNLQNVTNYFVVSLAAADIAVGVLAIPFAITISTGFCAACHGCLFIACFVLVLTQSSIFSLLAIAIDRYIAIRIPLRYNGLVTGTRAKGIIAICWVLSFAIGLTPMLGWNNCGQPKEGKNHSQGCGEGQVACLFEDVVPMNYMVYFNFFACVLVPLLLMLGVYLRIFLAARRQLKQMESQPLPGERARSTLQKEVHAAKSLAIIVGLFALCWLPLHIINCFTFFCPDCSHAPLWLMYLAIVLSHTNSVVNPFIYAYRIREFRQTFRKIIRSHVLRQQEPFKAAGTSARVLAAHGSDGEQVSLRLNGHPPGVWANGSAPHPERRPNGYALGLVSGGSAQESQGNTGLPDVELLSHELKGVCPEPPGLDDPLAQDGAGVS
Procedure, shortened: as §1

[4] = Human microsomal stability; type: in vitro ADME; settings: human microsomes; for microsomal stability percent (percentage remanent): sampling time 60 min; for microsomal CLint at 1 h / half-life at 1 h: human, pH 7.4; for microsomal CLint at 1 h: read-out: microsomal stability Clint (intrinsic clearance); for half-life at 1 h: read-out: microsomal stability t1/2
Protocol: The human microsomal stability of selected compounds was evaluated by following a previously described method.[31] The human microsomes employed were purchased from Tebu-Xenotech. The compound was incubated with the microsomes at 37 °C in a 50 mM phosphate buffer (pH = 7.4) containing 3 mM MgCl2, 1 mM NADP, 10 mM glucose-6-phosphate, and 1 U/mL glucose-6-phosphate-dehydrogenase. Samples (75 μL) were taken from each well at 0, 10, 20, 40, and 60 min and transferred to a plate containing 4 °C 75 μL acetonitrile and 30 μL of 0.5% formic acid in water was added for improving the chromatographic conditions. The plate was centrifuged (46,000 g, 30 min), and supernatants were taken and analyzed in a UPLC-MS/MS (Xevo TQD, Waters) by employing a BEH C18 column and an isocratic gradient of 0.1% formic acid in water:0.1% formic acid acetonitrile (60:40). The metabolic stability of the compounds was calculated from the logarithm of the remaining compounds at each of the time point studied.

hA3AR [5] = biological target: T2, hA3AR; settings: prototype series, [3H]NECA, human HeLa cells ref 30, 31; cited from earlier work
hA1AR [6] = biological target: T4, hA1AR; settings: prototype series, [3H]DPCPX, human CHO cells ref 30, 31; cited from earlier work
[7] = Figure 1, representative A2B antagonists ref 28-32, read-out: Ki
[8] = displacement of specific [3H]DPCPX binding in human HEK-293 cells, n = 3
[9] = substrate 7-benzyloxy-4-trifluoromethyl-coumarin
[10] = substrate dibenzylfluorescein, read-out: CYP3A4 IC50, DBF

Compound	Ki (hA2BAR; [8]) [nM]	Exp. dG (hA2BAR)	% at 1 μM hA3 (percentage displacement of specific binding) (hA3AR [2]) [%]	% at 1 μM hA2A (percentage displacement of specific binding) (hA2AAR) [%]	% at 1 μM hA1 (percentage displacement of specific binding) (hA1AR [3]) [%]	other results
c1cncc(Nc2ncc(-c3ccncn3)c(-c3ccco3)n2)c1 [LAS38096, 4′-(2-Furyl)-N-Pyridin-3-Yl-4,5‘-Bipyrimidin-2‘-Amine]	–	–	–	–	–	Ki (A2B; [7]): 17 nM
CC(=O)[C@H]1CC[C@H]2[C@@H]3CCC4=CC(=O)CC[C@]4(C)[C@H]3CC[C@]12C [progesterone, reference compound]	–	–	–	–	–	solubility at 4 h [1]: 6.7 µM (≈ 2.11 µg/mL)
CC1=C(C(=O)OC(C)C)C(c2ccco2)n2c(nc3ccc(Cl)cc32)N1 (stereo not drawn) [15j]	44.3 ± 1.4	-10.03	5	17	–	CYP3A4 % inh. at 10 μM, 7-BFC (CYP3A4; [9]): 11%; CYP3A4 % inh. at 10 μM, DBF (CYP3A4; substrate dibenzylfluorescein): 47%; IC50 (CYP3A4; substrate 7-benzyloxy-4-trifluoromethyl-coumarin, read-out: CYP3A4 IC50, 7-BFC): > 10 µM; IC50 (CYP3A4; [10]): > 10 µM; Ki (hA1AR [3]): 667 ± 12 nM; solubility at 4 h [1]: 58.2 µM (≈ 21.6 µg/mL); microsomal stability percent (percentage remanent) [4]: 16.83%; microsomal CLint at 1 h [4]: 26.4 µL/min/mg; half-life at 1 h [4]: 21.1 min
CC1=C(C(=O)OC(C)C)C(c2ccco2)NC(=S)N1 (stereo not drawn) [SYAF030]	–	–	–	–	–	Ki (A2B; [7]): 10.2 nM
CC1=C(C(=O)OC(C)C)C(c2ccco2)n2c(nc3cc(F)c(F)cc32)N1 (stereo not drawn) [14b]	11.9 ± 1.1	–	14	22	13	CYP3A4 % inh. at 10 μM, 7-BFC (CYP3A4; [9]): 58%; CYP3A4 % inh. at 10 μM, DBF (CYP3A4; substrate dibenzylfluorescein): 39%; solubility at 4 h [1]: 62 µM (≈ 23.1 µg/mL); microsomal stability percent (percentage remanent) [4]: 20.97%; microsomal CLint at 1 h [4]: 21.6 µL/min/mg; half-life at 1 h [4]: 28.9 min
CC1=C(C(=O)OC(C)C)C(c2cocn2)n2c(nc3cc(F)ccc32)N1 (stereo not drawn) [18b]	6.1 ± 0.3	-11.2	20	20	29	Ki (hA2BAR): < 10 nM; CYP3A4 % inh. at 10 μM, 7-BFC (CYP3A4; [9]): 52%; CYP3A4 % inh. at 10 μM, DBF (CYP3A4; substrate dibenzylfluorescein): 31%; IC50 (CYP3A4; [10]): > 10 µM; solubility at 4 h [1]: 64.6 µM (≈ 23 µg/mL); microsomal stability percent (percentage remanent) [4]: 35.15%; microsomal CLint at 1 h [4]: 12.8 µL/min/mg; half-life at 1 h [4]: 40.8 min
CCOC(=O)C1=C(C)Nc2nc3ccccc3n2C1c1cocn1 (stereo not drawn) [IX]	–	–	–	–	–	Ki (A2B; [7]): 8.1 nM
CCCn1c(=O)c2[nH]c(-c3cnn(Cc4cccc(C(F)(F)F)c4)c3)nc2n(CCC)c1=O [CVT-7124]	–	–	–	–	–	Ki (A2B; [7]): 6 nM
CCCn1c(=O)[nH]c2nc(-c3ccc(S(=O)(=O)N4CCN(c5ccc(Br)cc5)CC4)cc3)[nH]c2c1=O [PSB-1901]	–	–	–	–	–	Ki (A2B; [7]): 0.083 nM
CC1=C(C(=O)OC(C)C)C(c2ccoc2)n2c(nc3ccccc32)N1 (stereo not drawn) [IV]	–	-10.83	–	–	–	% at 1 μM hA3 (percentage displacement of specific binding) (hA3AR [5]): 2%; % at 1 μM hA1 (percentage displacement of specific binding) (hA1AR [6]): 12%
C[C@]12CC[C@H]3[C@@H](CCC4=CC(=O)CC[C@@]43C)[C@@H]1CC[C@@H]2O [testosterone, reference compound]	–	–	–	–	–	half-life at 1 h [4]: 16.1 min
CCOC(=O)C1=C(C)Nc2nc3cc(Cl)ccc3n2C1c1cocn1 (stereo not drawn) [18c]	8.6 ± 0.4	-11	15	13	30	Ki (hA2BAR): < 10 nM
O=c1c(-c2ccccc2)nnc2n(-c3ccccc3)c3ccc(Cl)cc3n12 [compound 5]	–	–	–	–	–	Ki (A2B; [7]): 1.4 nM
CC1=C(C(=O)OC(C)C)C(c2cccs2)n2c(nc3cc(Cl)ccc32)N1 (stereo not drawn) [16n]	837 ± 11	-8.286	1	2	2	–
PSB-603	–	–	–	–	–	Ki (A2B; Table 8 ref 28, read-out: hA2B Ki): 0.553 nM
CCOC(=O)C1=C(C)Nc2nc3ccc(Cl)cc3n2C1c1cocn1 (stereo not drawn) [17c]	25.6 ± 1.2	-10.35	11	14	–	Ki (hA1AR [3]): 227 nM
CCOC(=O)C1=C(C)Nc2nc3cc(Br)ccc3n2C1c1ccsc1 (stereo not drawn) [16w]	537 ± 8	–	1	9	1	–
CC1=C(C(=O)OC(C)C)[C@@H](c2ccco2)n2c(nc3cc(Cl)ccc32)N1 [(S)-16j]	2.04 ± 0.2	–	6	19	48	–
CCOC(=O)C1=C(C)Nc2nc3cc(Cl)ccc3n2C1c1ccoc1 (stereo not drawn) [16k]	7.21 ± 0.4	-11.1	4	43	31	Ki (hA2BAR): < 10 nM
CC1=C(C(=O)OC(C)C)C(c2cccs2)n2c(nc3cc(F)ccc32)N1 (stereo not drawn) [16f]	668 ± 6	-8.419	7	1	2	–
CCOC(=O)C1=C(C)Nc2nc3cc(Cl)c(Cl)cc3n2C1c1ccsc1 (stereo not drawn) [14o]	–	–	1	1	5	% at 1 μM hA2B (percentage displacement of specific binding) (hA2BAR; 1 μM, [3H]DPCPX, human HEK-293 cells, n = 2): 9%
